Assay results taken from patent US20250082674A1, “METHODS OF TREATING COPPER METABOLISM-ASSOCIATED DISEASES OR DISORDERS” (priority 2021, published 2025).
Read-outs that look alike come from different tables or passages of the source.

How the values were obtained:
[1] = human, in vivo
Excerpt: Pharmacokinetics: Blood samples for PK analysis were collected to measure plasma total molybdenum and plasma ultrafiltrate (PUF) molybdenum.

[2] = test system: patients with Wilson disease (WD)
Excerpt: The UWDRS Part II total score results for this pooled population are presented in Table 16 and FIG. 13 and the UWDRS Part III total score results are in Table 17 and FIG. 14. The UWDRS Part III Functional Subscale (comprised of the items arising from a chair, gait, handwriting and speech) results for this pooled population are presented in Table 18 and FIG. 15.

Bis-choline tetrathiomolybdate [BC-TTM]
Daily Mean AUC(0-48 weeks) PUF Mo, Mean [1]: 0.1 mmol/L | UWDRS Part III (Range 0-175) LSM change from baseline ([2]; BC-TTM exposure 4 wks): −0.83 | UWDRS Part III (Range 0-175) Mean change from baseline ([2]; BC-TTM exposure 4 wks): −0.72 | UWDRS Part III Functional Subscale (Range 0-10) LSM change from baseline ([2]; BC-TTM exposure 4 wks): −0.083 | UWDRS Part III Functional Subscale (Range 0-10) Mean change from baseline ([2]; BC-TTM exposure 4 wks): −0.072 | UWDRS Part III (Range 0-175) LSM change from baseline ([2]; BC-TTM exposure 12 wks): −1.13 | UWDRS Part III (Range 0-175) Mean change from baseline ([2]; BC-TTM exposure 12 wks): −1.11 | UWDRS Part III Functional Subscale (Range 0-10) LSM change from baseline ([2]; BC-TTM exposure 12 wks): −0.141 | UWDRS Part III Functional Subscale (Range 0-10) Mean change from baseline ([2]; BC-TTM exposure 12 wks): −0.137 | UWDRS Part III (Range 0-175) LSM change from baseline ([2]; BC-TTM exposure 24 wks): −1.10 | UWDRS Part III (Range 0-175) Mean change from baseline ([2]; BC-TTM exposure 24 wks): −0.97 | UWDRS Part III Functional Subscale (Range 0-10) LSM change from baseline ([2]; BC-TTM exposure 24 wks): −0.146 | UWDRS Part III Functional Subscale (Range 0-10) Mean change from baseline ([2]; BC-TTM exposure 24 wks): −0.157 | UWDRS Part III (Range 0-175) LSM change from baseline ([2]; BC-TTM exposure 36 wks): −1.85 | UWDRS Part III (Range 0-175) Mean change from baseline ([2]; BC-TTM exposure 36 wks): −2.38 | UWDRS Part III Functional Subscale (Range 0-10) LSM change from baseline ([2]; BC-TTM exposure 36 wks): −0.202 | UWDRS Part III Functional Subscale (Range 0-10) Mean change from baseline ([2]; BC-TTM exposure 36 wks): −0.286 | UWDRS Part III (Range 0-175) LSM change from baseline ([2]; BC-TTM exposure 48 wks): −2.76 | UWDRS Part III (Range 0-175) Mean change from baseline ([2]; BC-TTM exposure 48 wks): −3.37 | UWDRS Part III Functional Subscale (Range 0-10) LSM change from baseline ([2]; BC-TTM exposure 48 wks): −0.285 | UWDRS Part III Functional Subscale (Range 0-10) Mean change from baseline ([2]; BC-TTM exposure 48 wks): −0.345 | UWDRS Part III (Range 0-175) LSM change from baseline ([2]; BC-TTM exposure 60 wks): −3.24 | UWDRS Part III (Range 0-175) Mean change from baseline ([2]; BC-TTM exposure 60 wks): −2.00 | UWDRS Part III Functional Subscale (Range 0-10) LSM change from baseline ([2]; BC-TTM exposure 60 wks): −0.355 | UWDRS Part III Functional Subscale (Range 0-10) Mean change from baseline ([2]; BC-TTM exposure 60 wks): −0.422 | UWDRS Part III (Range 0-175) LSM change from baseline ([2]; BC-TTM exposure 72 wks): −4.43 | UWDRS Part III (Range 0-175) Mean change from baseline ([2]; BC-TTM exposure 72 wks): −4.93 | UWDRS Part III Functional Subscale (Range 0-10) LSM change from baseline ([2]; BC-TTM exposure 72 wks): −0.399 | UWDRS Part III Functional Subscale (Range 0-10) Mean change from baseline ([2]; BC-TTM exposure 72 wks): −0.494 | UWDRS Part III (Range 0-175) LSM change from baseline ([2]; BC-TTM exposure 96 wks): −6.32 | UWDRS Part III (Range 0-175) Mean change from baseline ([2]; BC-TTM exposure 96 wks): −7.95 | UWDRS Part III Functional Subscale (Range 0-10) LSM change from baseline ([2]; BC-TTM exposure 96 wks): −0.607 | UWDRS Part III Functional Subscale (Range 0-10) Mean change from baseline ([2]; BC-TTM exposure 96 wks): −0.900 | UWDRS Part III (Range 0-175) LSM change from baseline ([2]; BC-TTM exposure 120 wks): −6.69 | UWDRS Part III (Range 0-175) Mean change from baseline ([2]; BC-TTM exposure 120 wks): −8.92 | UWDRS Part III Functional Subscale (Range 0-10) LSM change from baseline ([2]; BC-TTM exposure 120 wks): −0.660 | UWDRS Part III Functional Subscale (Range 0-10) Mean change from baseline ([2]; BC-TTM exposure 120 wks): −0.946 | UWDRS Part III (Range 0-175) LSM change from baseline ([2]; BC-TTM exposure 144 wks): −7.70 | UWDRS Part III (Range 0-175) Mean change from baseline ([2]; BC-TTM exposure 144 wks): −9.78 | UWDRS Part III Functional Subscale (Range 0-10) LSM change from baseline ([2]; BC-TTM exposure 144 wks): −0.803 | UWDRS Part III Functional Subscale (Range 0-10) Mean change from baseline ([2]; BC-TTM exposure 144 wks): −1.042 | UWDRS Part III (Range 0-175) LSM change from baseline ([2]; BC-TTM exposure 168 wks): −9.48 | UWDRS Part III (Range 0-175) Mean change from baseline ([2]; BC-TTM exposure 168 wks): −18.08 | UWDRS Part III Functional Subscale (Range 0-10) LSM change from baseline ([2]; BC-TTM exposure 168 wks): −0.903 | UWDRS Part III Functional Subscale (Range 0-10) Mean change from baseline ([2]; BC-TTM exposure 168 wks): −1.841 | UWDRS Part III (Range 0-175) LSM change from baseline ([2]; BC-TTM exposure 192 wks): −6.13 | UWDRS Part III (Range 0-175) Mean change from baseline ([2]; BC-TTM exposure 192 wks): −12.65 | UWDRS Part III Functional Subscale (Range 0-10) LSM change from baseline ([2]; BC-TTM exposure 192 wks): −0.437 | UWDRS Part III Functional Subscale (Range 0-10) Mean change from baseline ([2]; BC-TTM exposure 192 wks): −1.250 | UWDRS Part III (Range 0-175) LSM change from baseline ([2]; BC-TTM exposure 216 wks): −6.52 | UWDRS Part III (Range 0-175) Mean change from baseline ([2]; BC-TTM exposure 216 wks): −16.17 | UWDRS Part III Functional Subscale (Range 0-10) LSM change from baseline ([2]; BC-TTM exposure 216 wks): −0.430 | UWDRS Part III Functional Subscale (Range 0-10) Mean change from baseline ([2]; BC-TTM exposure 216 wks): −1.519 | UWDRS Part III (Range 0-175) LSM change from baseline ([2]; BC-TTM exposure 240 wks): −6.49 | UWDRS Part III (Range 0-175) Mean change from baseline ([2]; BC-TTM exposure 240 wks): 11.48 | UWDRS Part III Functional Subscale (Range 0-10) LSM change from baseline ([2]; BC-TTM exposure 240 wks): −0.607 | UWDRS Part III Functional Subscale (Range 0-10) Mean change from baseline ([2]; BC-TTM exposure 240 wks): −0.898 | UWDRS Part III (Range 0-175) LSM change from baseline ([2]; BC-TTM exposure 264 wks): −9.57 | UWDRS Part III (Range 0-175) Mean change from baseline ([2]; BC-TTM exposure 264 wks): −14.00 | UWDRS Part III Functional Subscale (Range 0-10) LSM change from baseline ([2]; BC-TTM exposure 264 wks): −0.818 | UWDRS Part III Functional Subscale (Range 0-10) Mean change from baseline ([2]; BC-TTM exposure 264 wks): −0.995 | UWDRS Part III (Range 0-175) Mean ([2]; Baseline, observed value): 15.43
